{
  "source": "paper PMC5335257",
  "about": "“Promoting in vivo remyelination with small molecules: a neuroreparative pharmacological treatment for Multiple Sclerosis” (Scientific Reports, 2017)",
  "key": {"[1]": {"assay": "Pharmacokinetics in plasma and brain after single i.p. or oral dose", "type": "in vivo, male BALB/c mice", "conditions": "for AUCinf / AUClast / Cmax / MRT inf / MRT last / Tmax / AUC(0-inf) / AUC(0-t): male BALB/c mice; for Cmax / MRT inf / MRT last / Tmax / AUC(0-inf) / AUC(0-t): mouse"}, "adult human OPCs": {"tested_on": "adult human OPCs", "assay": "Differentiation assay, adult human OPCs", "type": "cell-based", "method": "Human brain samples were obtained from adult patients of temporal lobe epilepsy resistant to pharmacological treatment or traumatic brain injury; they underwent surgical treatment by the Neurosurgery Service at the Hospital Universitario de La Princesa (Madrid, Spain) and Hospital 12 de Octubre (Madrid, Spain). All tissue samples were obtained under protocols approved by the Research Ethics Committee of Toledo (Spain) review boards. All were conducted in accordance with the Helsinki Declaration and were approved by the Research Ethics Committee of Toledo (Spain). All patients provided informed consent prepared under the guidelines of the Research Ethics Committee at their respective hospital in Madrid (Spain).\nFor cells obtained from human biopsies, the same protocol was used except that papain solution was used 1:2.5 in HBSS for 10 minutes for meningeal disintegration and 1:10 in HBSS for 15 minutes for the tissue digestion, 25 cm[2] flasks were used, the medium was supplemented with 10 ng/ml of human PDGF-AA (Millipore) for 2 weeks and then incubated for 2 more weeks without growth factors before shaking and the shaking was carried out at 230 rpm instead of 250 rpm.\nPurified OPCs were placed on coverslips coated with poly-L-lysine and laminin in 24-well tissue culture dishes at a density of 2 × 10^4 cells/well. To promote differentiation, the cells were maintained in the differentiation medium (described above) and PDE7-GSK3 or GSK3 inhibitors (VP3.15 or TDZD8; 1 μM) were added to the culture medium. Different controls were used for the dual or single inhibitors due to the active substance being dissolved in differing amounts of DMSO. After 5, 7 and 10 DIV the cells were fixed with 4% PFA for further immunocytochemical analysis. Anti-CNPase antibodies (1:200;Covance; Cat#SMI-91R), anti-MBP antibodies (1:200; Serotec; Cat#MCA4095) for detecting oligodendrocytes and anti-Olig2 antibodies (1:250; Millipore; Cat#AB9610) as a marker for all oligodendroglial stages were used. Ten random fluorescence digital images were taken in each coverslip with a DFC480 FX digital camera (Leica) coupled to a Leica DM5000 B microscope for quantification. Data were expressed as a mean ratio of differentiated oligodendrocytes (CNPase^+-Olig2^+ double positive cells) with respect to total Olig2^+ cells ± SEM or percentage of CNPase^+ cells respect to control ± SEM, in at least three independent experiments, except with human samples (two independent experiments)."}, "[2]": {"tested_on": "cerebellar slices demyelinated with LPC", "assay": "Ex vivo remyelination in cerebellar slice cultures demyelinated with LPC", "type": "cell-based, CD1 P7 mice", "conditions": "5 μM, 3 days post lesion (3DPL)", "method": "The protocol used was modified from previously described. CD1 P7 mice were decapitated, and their cerebella were dissected into ice-cold HBSS (Invitrogen). 300 μm sagittal slices of cerebellum were cut using a McIllwain tissue chopper, placed on Millicell-CM organotypic culture inserts (3 slices per insert; Millipore) in a medium containing HBSS:BME: horse serum (1:2:1, Invitrogen), 28 mM D (+) - glucose (Normapur), […] L-Glutamine (Invitrogen) and 100 U/mL penicillin, 0.1 mg/mL streptomycin and 0.25 μg/ml Amphotericin B antibiotic anti-mycotic solution (Sigma) and maintained at 5% CO2 and 37 °C. Medium was changed every two days, and after 7 days in culture, demyelination was induced by addition of 0.5 mg/ml LPC (Sigma) to the medium for 15 h. After that, slices were treated with fresh medium containing PDE7-GSK3 or GSK3 inhibitors (VP1.15, VP3.15 or TDZD8; 5 μM). Cultures were maintained for 1 or 3 days post lesion (DPL), and then fixed for 40 minutes and immunostained with anti-MBP antibodies (myelin basic protein –as a marker of myelin; 1:200; Serotec; Cat#MCA4095) and anti-neurofilament antibody (as a marker of axons; 1:200; Abcam; Cat#ab8135). Fluorescence images were taken on a confocal SP5 resonant scanner (Leica Microsystems) at 1μm intervals in white matter areas at x40 magnification. The photographs were merged and co-localisation of both markers was quantified with Image J software using the colocalization highlighter plugin. This measurement was related to the area occupied by axons (neurofilament staining) and normalized with control values showing the data as the mean normalized myelination index ± SEM. Quantification was made in at least three independent experiments."}, "GSK-3": {"tested_on": "GSK-3", "parameters": "method as in PMID 24437940", "conditions": "read-out: GSK-3 inhibition IC50; cited from earlier work"}, "[3]": {"conditions": "i.p. 10 mg.kg^−1 single dose, brain"}, "[4]": {"conditions": "ip, i.p. 10 mg.kg^−1 single dose, brain"}, "[5]": {"conditions": "ip, i.p. 10 mg.kg^−1 single dose, plasma"}, "[6]": {"conditions": "po, p.o. 50 mg.kg^−1 single dose, brain"}, "[7]": {"conditions": "po, p.o. 50 mg.kg^−1 single dose, plasma"}, "[8]": {"conditions": "p.o. 50 mg.kg^−1 single dose, brain"}},
  "data": [
    {"smiles": "c1ccc(-c2n/c(=N/CCN3CCOCC3)sn2-c2ccccc2)cc1", "note": "[VP3.15]", "values": [
      {"measurement": "AUCinf", "setting": "[1]; [3]", "result": 1506.00, "unit": "ng·h/g"},
      {"measurement": "AUClast", "setting": "[1]; [3]", "result": 1489.25, "unit": "ng·h/g"},
      {"measurement": "oral bioavailability and brain penetration", "setting": "[1]; mice, after oral and i.p. administration", "result": "shows oral bioavailability and brain penetration"},
      {"measurement": "Cmax", "setting": "[1]; [4]", "result": 1980, "unit": "ng/g"},
      {"measurement": "MRT inf", "setting": "[1]; [4]", "result": 1.25, "unit": "h"},
      {"measurement": "MRT last", "setting": "[1]; [4]", "result": 1.21, "unit": "h"},
      {"measurement": "Tmax", "setting": "[1]; [4]", "result": 0.08, "unit": "h"},
      {"measurement": "AUC(0-inf)", "setting": "[1]; [5]", "result": 2000, "unit": "ng·h/mL"},
      {"measurement": "AUC(0-t)", "setting": "[1]; [5]", "result": 1960, "unit": "ng·h/mL"},
      {"measurement": "Cmax", "setting": "[1]; [5]", "result": 1990, "unit": "ng/mL"},
      {"measurement": "MRT inf", "setting": "[1]; [5]", "result": 0.91, "unit": "h"},
      {"measurement": "MRT last", "setting": "[1]; [5]", "result": 0.82, "unit": "h"},
      {"measurement": "Tmax", "setting": "[1]; [5]", "result": 0.25, "unit": "h"},
      {"measurement": "Cmax", "setting": "[1]; [6]", "result": 497, "unit": "ng/g"},
      {"measurement": "MRT inf", "setting": "[1]; [6]", "result": 4.01, "unit": "h"},
      {"measurement": "MRT last", "setting": "[1]; [6]", "result": 2.07, "unit": "h"},
      {"measurement": "Tmax", "setting": "[1]; [6]", "result": 0.5, "unit": "h"},
      {"measurement": "AUC(0-inf)", "setting": "[1]; [7]", "result": 2380, "unit": "ng·h/mL"},
      {"measurement": "AUC(0-t)", "setting": "[1]; [7]", "result": 2290, "unit": "ng·h/mL"},
      {"measurement": "Cmax", "setting": "[1]; [7]", "result": 881, "unit": "ng/mL"},
      {"measurement": "MRT inf", "setting": "[1]; [7]", "result": 1.86, "unit": "h"},
      {"measurement": "MRT last", "setting": "[1]; [7]", "result": 1.64, "unit": "h"},
      {"measurement": "Tmax", "setting": "[1]; [7]", "result": 1, "unit": "h"},
      {"measurement": "AUCinf", "setting": "[1]; [8]", "result": 1794.28, "unit": "ng·h/g"},
      {"measurement": "AUClast", "setting": "[1]; [8]", "result": 1375.08, "unit": "ng·h/g"},
      {"measurement": "number of CNPase+-Olig2+ cells vs control (differentiation)", "setting": "adult human OPCs; adult human OPCs, 1 μM, 5 DIV", "result": "significantly increased"},
      {"measurement": "number of primary cytoplasmic processes", "setting": "adult human OPCs; adult human oligodendrocytes, control 2.9 ± 0.21, p = 0.72", "result": "2.75 ± 0.20"},
      {"measurement": "number of cytoplasmic subprocesses", "setting": "adult human OPCs; adult human oligodendrocytes, control 4.3 ± 0.2, p = 0.83", "result": "4.8 ± 0.43"},
      {"measurement": "remyelination (normalized myelination index)", "setting": "[2]", "result": "increased"},
      {"measurement": "IC50", "setting": "GSK-3", "result": 880, "unit": "nM"}
    ]}
  ]
}
